Marks after values point to notes of the source that are not given here.
How the values were obtained:
[1] = tested on: λ carrageenin induced edema in rats; experiment: λ carrageenin induced paw edema; assay type: in vivo
Description: Carrageenin induced paw edema: Rats were injected with 0.1 ml of 1% λ carrageenin (St.-Louis, Mo.) into the subplantar side of the left hind paw. The paw was marked with ink at the level of the lateral malleolus and dipped in perspex cell up to this mark. The paw volume was measured with an Ugo Basile Plethysmometer (No: 61402) (7140 Comerio-varese, Italy) immediately and 3 h after injecting the λ carrageenin suspension. […] Significant reductions in the paw volume compared to vehicle treated control animals were considered as anti-inflammatory response. Percentage inhibition of oedema was calculated as follows: % Inhibition=(1−VT/VC)×100 VT=Paw volume in drug treated rats, VC=Paw volume in control group of rats.

[2] = tested on: impairment of memory acquisition in step-down test in rats (scopolamine); experiment: Passive avoidance task (step-down test), scopolamine-induced impairment of memory acquisition; assay type: in vivo
Description: Passive avoidance task (step-down test): A step-down passive avoidance was examined using apparatus consisted of a box (25×25×40 cm), a floor with stainless-steel grid 2 mm in diameter at 8-mm intervals, and a rubber platform (4 cm diameter, 4 cm height) set on the grid in one corner. Electric stimulation was given through the grid connected with a scrambled shock generator. […] For this trial, each rat was placed gently on the platform and allowed to habituate freely for 3 min, and then electric shock (0.4 mA) were delivered to the grid. If the rat stepped down from the platform, the electric shock was delivered to the rat on the grid floor. The cut off time was 2 min. A retention trail was performed 24 hr after the acquisition trail. Each rat was again placed on the platform. Time (step-down latency) that elapsed until rats stepped down from the electric grid of the platform to shock free zone was recorded. […] An error was counted when ever the rat stepped down from platform. The number of error made in 2 min was recorded.

| Compound | Paw volume (ml) at 3 h λ carrageenin ([1]; 100 mg/kg orally 1 h before carrageenin, six rats, mean ± SEM) | inhibition at 100 mg/kg ([1]; Rattus norvegicus, inhibition of paw oedema at 3 h vs control, 100 mg/kg, (1−VT/VC)×100) [%] | number of mistakes and latency period (in words) ([2]; scopolamine treated group) | Latency ([2]; step-down test, rats n=10, scopolamine 0.4 mg/kg i.p., formulations 100 mg/kg, tacrine dose not given, mean ± S.E.M.) [s] |
| --- | --- | --- | --- | --- |
| COc1ccc2c(c1)c(CC(=O)O)c(C)n2C(=O)c1ccc(Cl)cc1 [Indomethacin] | 0.18 ± 0.02^c ml | 79.3 | – | – |
| CN1[C@@H]2C[C@@H](OC(=O)[C@H](CO)c3ccccc3)C[C@H]1[C@@H]1O[C@@H]12 [Scopolamine] | – | – | significant increase in the number of mistakes as well as increase the latency period | 8.8 ± 0.03 |
